15 compounds from patent US6720346B2, “Thiazole benzamide derivatives and pharmaceutical compositions for inhibiting cell proliferation” (Agouron Pharmaceuticals, Inc., priority 2001, dated 2004) can be followed below.

The term IC50 denotes the concentration that gives 50% inhibition.

Each structure is given as a SMILES string. Counter-ions that a name gives are not always drawn.

Assay [1] concerns HCT-116 cell line. In words: Inhibition of cell growth, MTT tetrazolium salt assay. It counts as cell-based. Conditions: for IC50: Homo sapiens, HCT-116, 120 h, MTT, three to five days. In a few lines: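 Growth inhibition was read as MTT-formazan absorbance at 540 nm, after 4 h with 0.2 mg/mL MTT. Before that, HCT-116 cells had been exposed 3–5 days at 37 °C to compounds in 0.5% (v/v) DMSO, added 4 h after plating. 50% and 90% inhibitory concentrations were taken from semi-log concentration–inhibition plots versus vehicle controls.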
A general note: Tetrazolium dyes change colour on reduction, which living cells bring about.

Assay [2] deals with T1, CDK2/cyclin A (Homo sapiens, UniProt P24941).
T1 construct: made in house; host or cells: CDK2: insect cells (baculovirus); cyclin A: E. coli
Put plainly: Inhibition of CDK2/cyclin A retinoblastoma kinase activity (Ki; % inhibition). It counts as biochemical. As to conditions: for Ki: apparent Ki, CDK2/cyclin A, Rb substrate. In a few lines: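 Radiometric filter assay of CDK2/proteolyzed cyclin A (baculovirus-expressed human CDK2, 10 or 19 nM) phosphorylating an Rb fragment with 25 μM [³²P/³³P]ATP in pH 7.4 HEPES, 2% DMSO, at 30 °C for 60 or 75 min under initial-rate conditions. Library compounds screened at 30 nM for % inhibition; apparent Ki from concentration series fit to competitive or tight-binding inhibition equations.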

The target of assay [3] is T2, human CDK4/cyclin D3 (Homo sapiens, UniProt P11802).
T2 construct: made in house; host or cells: insect cells co-infected with baculovirus vectors
Put plainly: Inhibition of CDK4/cyclin D retinoblastoma kinase activity (Ki; % inhibition). As to conditions: for Ki: apparent Ki, CDK4/cyclin D3, Rb substrate. It counts as biochemical. In a few lines:
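Insect-cell-expressed CDK4 with truncated cyclin D3 (1-264), 5 nM, phosphorylating His-tagged Rb fragment (386-928) with 25 μM [32/33P]ATP at pH 7.4, 30 °C, 20 min (60 min for tight binders). Filter capture, phosphorimager read; % inhibition at 30 nM compound, Ki from competitive or tight-binding fits.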

[4] abbreviates: HCT-116 cells, 0.25 μM compound.

T2 sequence (P11802 whole entry): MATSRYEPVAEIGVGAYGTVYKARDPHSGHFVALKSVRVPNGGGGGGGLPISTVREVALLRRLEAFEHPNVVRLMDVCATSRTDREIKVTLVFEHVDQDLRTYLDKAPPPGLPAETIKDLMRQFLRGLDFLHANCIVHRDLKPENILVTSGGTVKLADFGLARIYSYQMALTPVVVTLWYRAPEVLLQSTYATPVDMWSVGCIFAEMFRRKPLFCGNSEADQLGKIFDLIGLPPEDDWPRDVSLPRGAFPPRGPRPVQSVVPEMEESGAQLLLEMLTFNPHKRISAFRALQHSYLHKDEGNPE
T2 sequence (P30281 1-264 partner limits assumed): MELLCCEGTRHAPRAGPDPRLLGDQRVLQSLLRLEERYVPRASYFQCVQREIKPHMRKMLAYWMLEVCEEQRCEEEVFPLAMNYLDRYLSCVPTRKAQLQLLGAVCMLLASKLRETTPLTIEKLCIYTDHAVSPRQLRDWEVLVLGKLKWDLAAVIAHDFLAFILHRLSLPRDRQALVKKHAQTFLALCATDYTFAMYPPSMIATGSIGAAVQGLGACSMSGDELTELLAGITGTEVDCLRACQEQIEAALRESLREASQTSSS

For the compound `C[C@H](CN(C)C)NC(=O)c1ccc(Nc2nc(N)c(C(=O)c3ccccc3F)s2)cc1` [Example A66, Trifluoroacetic Acid Salt], the half-inhibitory concentration (IC50) in assay [1] stood at 120 nM. The results for the Ki in assay [2] and in assay [3] were 18 nM and 350 nM, respectively.

Consider `COc1cc(NC(=O)c2ccc(Nc3nc(N)c(C(=O)c4c(F)cccc4F)s3)cc2)cc(OC)c1OC` [Example G295], for which the “HCT-116 % Inhibition at 0.1 μM” value in assay [1] (HCT-116 cells, 0.1 μM compound) was determined as 10%. Moreover, the “HCT-116 % Inhibition at 0.25 μM” value in assay [1] (setting [4]) is 78%. Besides, in assay [2] (0.03 μM compound), the “CDK2 % Inhibition at 0.03 μM” value came out at 8%. Also, the “CDK4 % Inhibition at 0.03 μM” value in assay [3] (0.03 μM compound) was 22%.

Consider `CC1CC(NC(=O)c2ccc(Nc3nc(N)c(C(=O)c4c(F)cccc4F)s3)cc2)CC(C)(C)C1` (centres unmarked) [Example G112], for which the “HCT-116 % Inhibition at 0.1 μM” value in assay [1] (HCT-116, at 0.1 μM) was determined as 6%. Besides, the “HCT-116 % Inhibition at 0.25 μM” value in assay [1] (HCT-116, at 0.25 μM) is 57%. Moreover, the “CDK2 % Inhibition at 0.03 μM” value in assay [2] (at 0.03 μM) is reported as −11%. Moreover, in assay [3] (at 0.03 μM), the “CDK4 % Inhibition at 0.03 μM” value came to 13%.

For the compound `Nc1nc(Nc2ccc(C(=O)NCc3ccc(C(F)(F)F)cc3)cc2)sc1C(=O)c1c(F)cccc1F` [Example G261], the “HCT-116 % Inhibition at 0.1 μM” value in assay [1] (HCT-116 cells, 0.1 μM compound) turned out to be 26%. Besides, the “HCT-116 % Inhibition at 0.25 μM” value in assay [1] (setting [4]) is 69%. For the same compound, the “CDK2 % Inhibition at 0.03 μM” value in assay [2] (0.03 μM compound) was found to be 30%. For the same compound, the “CDK4 % Inhibition at 0.03 μM” value in assay [3] (0.03 μM compound) is reported as 27%.

Regarding `CN(CCCNC(=O)c1ccc(Nc2nc(N)c(C(=O)c3c(F)cccc3F)s2)cc1)c1ccccc1` [Example G363], the “HCT-116 % Inhibition at 0.1 μM” value in assay [1] (HCT-116 cells, 0.1 μM compound) came to 24%. Also, the “HCT-116 % Inhibition at 0.25 μM” value in assay [1] (setting [4]) is given as 63%. The “CDK2 % Inhibition at 0.03 μM” value in assay [2] (0.03 μM compound) came out at 27%. Moreover, in assay [3] (0.03 μM compound), the “CDK4 % Inhibition at 0.03 μM” value was determined as 16%.

For the compound `C[C@@H](CNC(=O)c1ccc(Nc2nc(N)c(C(=O)c3c(F)cccc3F)s2)cc1)c1ccccc1` [Example G375], the “HCT-116 % Inhibition at 0.1 μM” value in assay [1] (HCT-116 cells, 0.1 μM compound) turned out to be 26%. The “HCT-116 % Inhibition at 0.25 μM” value in assay [1] (setting [4]) is listed as 62%. For the same compound, the “CDK2 % Inhibition at 0.03 μM” value in assay [2] (0.03 μM compound) was determined as 10%. Further, in assay [3] (0.03 μM compound), the “CDK4 % Inhibition at 0.03 μM” value is recorded as −3%.

On to `Nc1nc(Nc2ccc(C(=O)NCCc3c(Cl)cccc3Cl)cc2)sc1C(=O)c1c(F)cccc1F` [Example G372], for which, in assay [1] (HCT-116 cells, 0.1 μM compound), the “HCT-116 % Inhibition at 0.1 μM” value turned out to be 19%. Moreover, in assay [1] (setting [4]), the “HCT-116 % Inhibition at 0.25 μM” value was 51%. For the same compound, the “CDK2 % Inhibition at 0.03 μM” value in assay [2] (0.03 μM compound) is given as −21%. Further, the “CDK4 % Inhibition at 0.03 μM” value in assay [3] (0.03 μM compound) amounted to 6%.

Consider `Nc1nc(Nc2ccc(C(=O)N3CCCCC3CCO)cc2)sc1C(=O)c1c(F)cccc1F` (centres unmarked) [Example G265], for which the “HCT-116 % Inhibition at 0.1 μM” value in assay [1] (HCT-116 cells, 0.1 μM compound) worked out at 21%. The “HCT-116 % Inhibition at 0.25 μM” value in assay [1] (setting [4]) turned out to be 48%. Besides, in assay [2] (0.03 μM compound), the “CDK2 % Inhibition at 0.03 μM” value is reported as −24%. In assay [3] (0.03 μM compound), the “CDK4 % Inhibition at 0.03 μM” value is given as 1%.

Regarding `CCCCC(CO)NC(=O)c1ccc(Nc2nc(N)c(C(=O)c3c(F)cccc3F)s2)cc1` (centres unmarked) [Example G329], the “HCT-116 % Inhibition at 0.1 μM” value in assay [1] (HCT-116 cells, 0.1 μM compound) was 9%. In assay [1] (setting [4]), the “HCT-116 % Inhibition at 0.25 μM” value was 56%. Also, in assay [2] (0.03 μM compound), the “CDK2 % Inhibition at 0.03 μM” value is listed as 10%. The “CDK4 % Inhibition at 0.03 μM” value in assay [3] (0.03 μM compound) is 19%.

Consider `CCOc1cccc(NC(=O)c2ccc(Nc3nc(N)c(C(=O)c4c(F)cccc4F)s3)cc2)c1` [Example G16], for which the “HCT-116 % Inhibition at 0.25 μM” value in assay [1] (HCT-116, at 0.25 μM) is recorded as 50%. The “CDK2 % Inhibition at 0.03 μM” value in assay [2] (at 0.03 μM) is −7%. Further, the “CDK4 % Inhibition at 0.03 μM” value in assay [3] (at 0.03 μM) came to 1%.

In the case of `Nc1nc(Nc2ccc(C(=O)N3CCCC(CO)C3)cc2)sc1C(=O)c1c(F)cccc1F` (centres unmarked) [Example G48], the “HCT-116 % Inhibition at 0.25 μM” value in assay [1] (HCT-116, at 0.25 μM) is recorded as 50%. Also, the “CDK2 % Inhibition at 0.03 μM” value in assay [2] (at 0.03 μM) was 1%. Besides, the “CDK4 % Inhibition at 0.03 μM” value in assay [3] (at 0.03 μM) was found to be 3%.

As for `Nc1nc(Nc2ccc(C(=O)NCc3ccccc3Cl)cc2)sc1C(=O)c1c(F)cccc1F` [Example G228], the “HCT-116 % Inhibition at 0.1 μM” value in assay [1] (HCT-116 cells, 0.1 μM compound) was found to be 24%. The “HCT-116 % Inhibition at 0.25 μM” value in assay [1] (setting [4]) amounted to 75%. In addition, the “CDK2 % Inhibition at 0.03 μM” value in assay [2] (0.03 μM compound) is 38%. Besides, the “CDK4 % Inhibition at 0.03 μM” value in assay [3] (0.03 μM compound) turned out to be 36%.

In the case of `CN1CCC[C@@]1(C)CNC(=O)c1ccc(Nc2nc(N)c(C(=O)c3c(F)cccc3F)s2)cc1` [Example A74, 4-{4-Amino-5-(2,6-difluoro-benzoyl)-thiazol-2-ylamino}-N-(1,2-dimethyl-pyrrolidin-2S-ylmethyl)-benzamide Trifluoroacetic Acid Salt], the IC50 in assay [1] is 1900 nM. For the same compound, the Ki in assay [2] is 9.8 nM; in assay [3], 380 nM.

Consider `CCN(CCCCO)C(=O)c1ccc(Nc2nc(N)c(C(=O)c3c(F)cccc3F)s2)cc1` [Example G385], for which, in assay [1] (HCT-116 cells, 0.1 μM compound), the “HCT-116 % Inhibition at 0.1 μM” value turned out to be 28%. The “HCT-116 % Inhibition at 0.25 μM” value in assay [1] (setting [4]) amounted to 50%. In addition, the “CDK2 % Inhibition at 0.03 μM” value in assay [2] (0.03 μM compound) worked out at 1%. In addition, in assay [3] (0.03 μM compound), the “CDK4 % Inhibition at 0.03 μM” value is −1%.

Take `Nc1nc(Nc2ccc(C(=O)NCCNc3ccccc3)cc2)sc1C(=O)c1c(F)cccc1F` [Example G134]: the “HCT-116 % Inhibition at 0.1 μM” value in assay [1] (HCT-116, at 0.1 μM) turned out to be 1%. Further, the “HCT-116 % Inhibition at 0.25 μM” value in assay [1] (HCT-116, at 0.25 μM) was 89%. Also, the “CDK2 % Inhibition at 0.03 μM” value in assay [2] (at 0.03 μM) was 60%. For the same compound, the “CDK4 % Inhibition at 0.03 μM” value in assay [3] (at 0.03 μM) stood at 38%.
